biological target: T1, GPR84 (Homo sapiens, UniProt Q9NQS5); assay: GPR84 [35S]GTPγS binding assay; format: biochemical; settings: 3,3′-diindolylmethane at EC80; membranes from stable cell line over expressing GPR84
T1 construct: expressed in transfected cells
Protocol: The following assay can be used for determination of GPR84 activation. The [^35S]GTPγS binding assay measures the level of G protein activation following agonist occupation of a GPCR, by determining the binding of the non-hydrolysable analog [^35S]GTPγS to Gα subunits.
The assay is performed in a 96-well plate where the following reagents are added. First 50 μL compound is added into the assay plate, followed by addition of 20 μL 3,3′-diindolylmethane at EC80 concentration (concentration which gives 80% of the activity of GPR84). Then, 30 μL of a mixture consisting of membranes-GTPγS-SpA beads is added [mixture consists of 20 μg/well membranes derived from stable cell line over expressing GPR84 (membranes are pre-incubated with 0.1 μM GDP for 15 min at 4° C.), 0.1 nM [^35S]GTPγS (Perkin Elmer, NEG030) and 0.5 mg/well PVT-WGA SpA beads (Perkin Elmer, RPNQ0001)]. All components are diluted in assay buffer containing 20 mM Tris pH 7.5; 5 mM MgCl2; 250 mM NaCl; 0.05% BSA; 75 μg/mL saponin. After an incubation of 90 min at room temperature, 20 μL CsCl2 0.8 M (MP Biomedicals, 02150589) is added, followed by centrifugation at 2000 rpm during 20 min. Plates are read on a topcount reader (perkin elmer) immediately after centrifugation (readout time, 1 min/well).

T1 sequence (Q9NQS5 whole entry): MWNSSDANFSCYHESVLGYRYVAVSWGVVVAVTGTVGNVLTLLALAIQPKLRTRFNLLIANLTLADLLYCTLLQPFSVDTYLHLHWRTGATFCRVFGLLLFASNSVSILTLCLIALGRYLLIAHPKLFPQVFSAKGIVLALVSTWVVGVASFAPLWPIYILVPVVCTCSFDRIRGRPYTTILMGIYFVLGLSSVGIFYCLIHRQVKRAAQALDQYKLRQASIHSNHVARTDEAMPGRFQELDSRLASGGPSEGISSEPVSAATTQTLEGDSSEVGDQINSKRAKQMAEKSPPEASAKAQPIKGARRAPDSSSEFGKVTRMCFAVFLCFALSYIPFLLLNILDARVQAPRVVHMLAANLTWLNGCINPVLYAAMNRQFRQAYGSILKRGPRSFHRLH

IC50, 0.01 to 100 nM:
Cc1c2n(c(OC[C@@H]3COCCO3)cc1=O)CCc1cc(OC3CN(C(=O)OC(C)(C)C)C3)ccc1-2 [Compound 104, tert-butyl 3-[[4-[[(2S)-1,4-dioxan-2-yl]methoxy]-1-methyl-2-oxo-6,7-dihydrobenzo[a]quinolizin-9-yl]oxy]azetidine-1-carboxylate]
[2H]C(Oc1ccc2c(c1)CCn1c(OC[C@@H]3COCCO3)c([2H])c(=O)c(C)c1-2)=C(F)F [Compound 105, 3-deuterio-9-(1-deuterio-2,2-difluoro-vinyloxy)-4-[[(2S)-1,4-dioxan-2-yl]methoxy]-1-methyl-6,7-dihydrobenzo[a]quinolizin-2-one]
[2H]C([2H])(Oc1ccc2c(c1)CCn1c(OC[C@@H]3COCCO3)cc(=O)c(C)c1-2)C(F)(F)F [Compound 106, 9-(1,1-dideuterio-2,2,2-trifluoro-ethoxy)-4-[[(2S)-1,4-dioxan-2-yl]methoxy]-1-methyl-6,7-dihydrobenzo[a]quinolizin-2-one]
Cc1c2n(c(OC[C@@H]3CCCO3)cc1=O)CCc1cc(OCc3ccccc3)ccc1-2 [Compound 108, 9-benzyloxy-1-methyl-4-[[(2S)-tetrahydrofuran-2-yl]methoxy]-6,7-dihydrobenzo[a]quinolizin-2-one]
Cc1c2n(c(OCC3CCCCO3)cc1=O)CCc1cc(OCc3ccccc3)ccc1-2 (centres unmarked) [Compound 109, 9-benzyloxy-1-methyl-4-(tetrahydropyran-2-ylmethoxy)-6,7-dihydrobenzo[a]quinolizin-2-one]
COC1CN(c2ccc3c(c2)CCn2c(OC[C@@H]4COCCO4)cc(=O)c(C)c2-3)C1 [Compound 110, 4-[[(2S)-1,4-dioxan-2-yl]methoxy]-9-(3-methoxyazetidin-1-yl)-1-methyl-6,7-dihydrobenzo[a]quinolizin-2-one]
COC1CCN(c2ccc3c(c2)CCn2c(OC[C@@H]4COCCO4)cc(=O)c(C)c2-3)CC1 [Compound 111, 4-[[(2S)-1,4-dioxan-2-yl]methoxy]-9-(4-methoxy-1-piperidyl)-1-methyl-6,7-dihydrobenzo[a]quinolizin-2-one]
Cc1c2n(c(OC[C@@H]3COCCO3)cc1=O)CCc1cc(N3CCC(C(=O)N4CCCCC4)CC3)ccc1-2 [Compound 112, 4-[[(2S)-1,4-dioxan-2-yl]methoxy]-1-methyl-9-[4-(piperidine-1-carbonyl)-1-piperidyl]-6,7-dihydrobenzo[a]quinolizin-2-one]
Cc1c2n(c(OC[C@@H]3COCCO3)cc1=O)CCc1cc(N3CCC(c4ccccc4)CC3)ccc1-2 [Compound 113, 4-[[(2S)-1,4-dioxan-2-yl]methoxy]-1-methyl-9-(4-phenyl-1-piperidyl)-6,7-dihydrobenzo[a]quinolizin-2-one]
Cc1c2n(c(OC[C@@H]3COCCO3)cc1=O)CCc1cc(N3CCCCC3)ccc1-2 [Compound 115, 4-[[(2S)-1,4-dioxan-2-yl]methoxy]-1-methyl-9-(1-piperidyl)-6,7-dihydrobenzo[a]quinolizin-2-one]
Cc1c2n(c(OC[C@@H]3COCCO3)cc1=O)CCc1cc(N3CCCC(C)C3)ccc1-2 (stereo partly drawn) [Compound 116, 4-[[(2S)-1,4-dioxan-2-yl]methoxy]-1-methyl-9-(3-methyl-1-piperidyl)-6,7-dihydrobenzo[a]quinolizin-2-one]
Cc1c2n(c(OC[C@@H]3COCCO3)cc1=O)CCc1cc(N3CCC(c4ccc(F)cc4)CC3)ccc1-2 [Compound 117, 4-[[(2S)-1,4-dioxan-2-yl]methoxy]-9-[4-(4-fluorophenyl)-1-piperidyl]-1-methyl-6,7-dihydrobenzo[a]quinolizin-2-one]
CCOC(=O)N1CC(Oc2ccc3c(c2)CCn2c(OC[C@@H]4COCCO4)cc(=O)c(C)c2-3)C1 [Compound 120, ethyl 3-[[4-[[(2S)-1,4-dioxan-2-yl]methoxy]-1-methyl-2-oxo-6,7-dihydrobenzo[a]quinolizin-9-yl]oxy]azetidine-1-carboxylate]
Cc1c2n(c(OC[C@@H]3COCCO3)cc1=O)CCc1cc(N3CCC(Oc4cccnc4)CC3)ccc1-2 [Compound 121, 4-[[(2S)-1,4-dioxan-2-yl]methoxy]-1-methyl-9-[4-(3-pyridyloxy)-1-piperidyl]-6,7-dihydrobenzo[a]quinolizin-2-one]
Cc1c2n(c(OC[C@@H]3COCCO3)cc1=O)CCc1cc(N3CCC(C#N)CC3)ccc1-2 [Compound 122, 1-[4-[[(2)S-1,4-dioxan-2-yl]methoxy]-1-methyl-2-oxo-6,7-dihydrobenzo[a]quinolizin-9-yl]piperidine-4-carbonitrile]
Cc1c2n(c(OC[C@@H]3COCCO3)cc1=O)CCc1cc(N3CCCC(F)(F)C3)ccc1-2 [Compound 123, 9-(3,3-difluoro-1-piperidyl)-4-[[(2S)-1,4-dioxan-2-yl]methoxy]-1-methyl-6,7-dihydrobenzo[a]quinolizin-2-one]
Cc1c2n(c(OC[C@@H]3COCCO3)cc1=O)CCc1cc(C(C)C)ccc1-2 [Compound 124, 4-[[(2S)-1,4-dioxan-2-yl]methoxy]-9-isopropyl-1-methyl-6,7-dihydrobenzo[a]quinolizin-2-one]
[2H]c1c(OC[C@@H]2COCCO2)n2c(c(C)c1=O)-c1ccc(OCC(F)(F)F)cc1CC2 [Compound 125, 3-deuterio-4-[[(2S)-1,4-dioxan-2-yl]methoxy]-1-methyl-9-(2,2,2-trifluoroethoxy)-6,7-dihydrobenzo[a]quinolizin-2-one]
[2H]c1c(OC[C@@H]2COCCO2)n2c(c(C)c1=O)-c1ccc(OC([2H])([2H])C([2H])([2H])F)cc1CC2 [Compound 126, 3-deuterio-4-[[(2S)-1,4-dioxan-2-yl]methoxy]-1-methyl-9-(1,1,2,2-tetradeuterio-2-fluoro-ethoxy)-6,7-dihydrobenzo[a]quinolizin-2-one]
Cc1c2n(c(OC[C@@H]3COCCO3)cc1=O)CCc1cc(OC3CCN(C(=O)OC(C)(C)C)C3)ccc1-2 (stereo partly drawn) [Compound 127, tert-butyl 3-[[4-[[(2S)-1,4-dioxan-2-yl]methoxy]-1-methyl-2-oxo-6,7-dihydrobenzo[a]quinolizin-9-yl]oxy]pyrrolidine-1-carboxylate]
Cc1c2n(c(OC[C@@H]3COCCO3)cc1=O)CCc1cc(OC3CCN(C(=O)OC(C)(C)C)CC3)ccc1-2 [Compound 128, tert-butyl 4-[[4-[[(2S)-1,4-dioxan-2-yl]methoxy]-1-methyl-2-oxo-6,7-dihydrobenzo[a]quinolizin-9-yl]oxy]piperidine-1-carboxylate]
Cc1c2n(c(OC[C@@H]3COCCO3)cc1=O)CCc1cc(N(C)CCC(F)(F)F)ccc1-2 [Compound 129, 4-[[(2S)-1,4-dioxan-2-yl]methoxy]-1-methyl-9-[methyl(3,3,3-trifluoropropyl)amino]-6,7-dihydrobenzo[a]quinolizin-2-one]
Cc1c2n(c(OC[C@@H]3COCCO3)cc1=O)CCc1cc(N3CCCC3)ccc1-2 [Compound 130, 4-[[(2S)-1,4-dioxan-2-yl]methoxy]-1-methyl-9-pyrrolidin-1-yl-6,7-dihydrobenzo[a]quinolizin-2-one]
Cc1c2n(c(OC[C@@H]3COCCO3)cc1=O)CCc1cc(N3CCC(F)(F)C3)ccc1-2 [Compound 131, 9-(3,3-difluoropyrrolidin-1-yl)-4-[[(2S)-1,4-dioxan-2-yl]methoxy]-1-methyl-6,7-dihydrobenzo[a]quinolizin-2-one]
Cc1c2n(c(OC[C@@H]3COCCO3)cc1=O)CCc1cc(N3CC(C(F)(F)F)C3)ccc1-2 [Compound 132, 4-[[(2S)-1,4-dioxan-2-yl]methoxy]-1-methyl-9-[3-(trifluoromethyl)azetidin-1-yl]-6,7-dihydrobenzo[a]quinolizin-2-one]
Cc1c2n(c(OC[C@@H]3COCCO3)cc1=O)CCc1cc(N3CC=C(C(F)(F)F)CC3)ccc1-2 [Compound 133, 4-[[(2S)-1,4-dioxan-2-yl]methoxy]-1-methyl-9-[4-(trifluoromethyl)-3,6-dihydro-2H-pyridin-1-yl]-6,7-dihydrobenzo[a]quinolizin-2-one]

IC50, 100 to 500 nM:
Cc1c2n(c(OCC3CCO3)cc1=O)CCc1cc(OCc3ccccc3)ccc1-2 (centres unmarked) [Compound 107, 9-benzyloxy-1-methyl-4-(oxetan-2-ylmethoxy)-6,7-dihydrobenzo[a]quinolizin-2-one]
Cc1c2n(c(OC[C@@H]3COCCO3)cc1=O)CCc1cc(OC3CN(C(=O)C4CC4)C3)ccc1-2 [Compound 118, 9-[1-(cyclopropanecarbonyl)azetidin-3-yl]oxy-4-[[(2S)-1,4-dioxan-2-yl]methoxy]-1-methyl-6,7-dihydrobenzo[a]quinolizin-2-one]
Cc1c2n(c(OC[C@@H]3COCCO3)cc1=O)CCc1cc(OC3CN(C(=O)C(F)(F)F)C3)ccc1-2 [Compound 119, 4-[[(2)S-1,4-dioxan-2-yl]methoxy]-1-methyl-9-[1-(2,2,2-trifluoroacetyl)azetidin-3-yl]oxy-6,7-dihydrobenzo[a]quinolizin-2-one]

— patent US10568879B2 (GALAPAGOS NV, priority 2015, dated 2020)
